Reference: the METLIN SMRT retention time set (Domingo-Almenara et al. 2019)

Assay: gradient 5% acetonitrile 3 min, to 50% in 2 min, to 85% in 15 min, held 3 min, 100 µL/min
Details: column: Zorbax Extend-C18 2.1 x 50 mm; eluents: water / acetonitrile, 0.1% formic acid
Summary of the method: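 Pure standards were analyzed in mixtures of ~100 molecules using HPLC coupled to a quadrupole time-of-flight mass spectrometer, in both positive and negative ionization mode. Separation used a Zorbax Extend-C18 column (2.1 × 50 mm, 1.8 μm) at 100 μL/min, with water and acetonitrile each containing 0.1% formic acid. Dead and dwell volumes were 40 μL and 900 μL, and data were collected over 3 months. Retention time was read from computationally picked adduct peaks, each inspected manually.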

CSc1cccc(NC(=O)NCCNc2nc(C)cc(N(C)C)n2)c1
RP-LC retention time: 583 s

CC1CCN(S(=O)(=O)c2cccn(Cc3cc(F)cc(F)c3)c2=O)CC1
RP-LC retention time: 974 s

Cc1ccc(OCC(=O)N2CCC(c3noc(-c4cnccn4)n3)C2)cc1 (stereo not drawn)
RP-LC retention time: 754 s

Cc1ccc(NC(=O)Cn2cnc3nc(N4CCCC(C(=O)NC5CC5)C4)sc3c2=O)cc1F (stereo not drawn)
RP-LC retention time: 703 s

O=C(Nc1ncc(Cc2ccccc2Cl)s1)c1cc2ccccc2c(=O)o1
RP-LC retention time: 991 s

Cc1ccc(-n2ccc(=O)c(-c3nc(-c4ccccc4Cl)no3)n2)cc1
RP-LC retention time: 958 s

COc1ccc(Cl)cc1NC(=O)N1CCC(C(=O)Nc2nccs2)CC1
RP-LC retention time: 764 s

N#Cc1ccc(-c2csc(NC(=O)c3sc4ccccc4c3Cl)n2)cc1
RP-LC retention time: 1240 s

Cc1ccc(C(=O)N2CCc3[nH]nc(C(=O)N(C)C)c3C2)cc1F
RP-LC retention time: 625 s

COc1ccc2c(c1)C1(CCN(C(=O)NCCc3ccccc3)C1)C(=O)N2 (stereo not drawn)
RP-LC retention time: 750 s

O=C(Cn1ncc2c(c1=O)N(CC1CC1)C(=O)CS2)NCc1ccccc1Cl
RP-LC retention time: 789 s

COc1ccccc1NC(=O)Cn1nc2c(Oc3cc(C)cc(C)c3)nccn2c1=O
RP-LC retention time: 957 s

COc1ccc(N2CC(c3nc(-c4ccccc4Cl)no3)CC2=O)cc1 (stereo not drawn)
RP-LC retention time: 926 s

O=C(CCc1nc(-c2ccc(N3CCCC3)cc2)no1)N1CCC2(CC1)OCCO2
RP-LC retention time: 945 s

Cc1ccc(NC(=O)C2CCN(S(=O)(=O)c3ccc4c(c3)CCCC(=O)N4)CC2)cc1C
RP-LC retention time: 814 s

Fc1cc(F)cc(-c2nnc(Cc3nc(-c4ccccn4)no3)o2)c1
RP-LC retention time: 814 s

Cc1ccc(NC(=O)N2CCCC(C)(C(=O)NCc3ccccc3C)C2)c(Cl)c1 (stereo not drawn)
RP-LC retention time: 984 s

Cc1cc(N2CCN(S(=O)(=O)c3ccccc3F)CC2)nc(NC2CCCCC2)n1
RP-LC retention time: 796 s

CCc1ccc(NC(=O)N2CCC(n3cnc4cc(Cl)ccc4c3=O)CC2)cc1
RP-LC retention time: 877 s

Cc1cc(C)cc(NC(=O)C2CCN(S(=O)(=O)c3cc(C(=O)N4CCCC4)n(C)c3)CC2)c1
RP-LC retention time: 843 s

CNC(=O)c1cc(=O)[nH]c2c(Cl)cccc12
RP-LC retention time: 596 s

CCc1noc(-c2cc(=O)n(CC(=O)Nc3ccccc3OC)c3ccccc23)n1
RP-LC retention time: 962 s

COC(=O)c1cc2c(=O)n(-c3nc4cc(C)c(C)cc4s3)ccc2nc1C
RP-LC retention time: 1420 s

Cc1cc(C)cc(NC(=O)CSc2nccc(N3CCN(c4cc(C)ccc4C)CC3)n2)c1
RP-LC retention time: 989 s

CCCn1c(CCNC(=O)c2ccc(Cl)cc2)nc2cccnc21
RP-LC retention time: 722 s

COc1ccc2c(CCNC(=O)Nc3ccc(Cl)cc3)c[nH]c2c1
RP-LC retention time: 711 s

Cc1cc(C)c(S(=O)(=O)N2CCCC(C(=O)Nc3ccc4c(c3)OCO4)C2)c(C)c1 (stereo not drawn)
RP-LC retention time: 974 s

Cn1cc(-c2noc(-c3cc(F)ccc3Cl)n2)ccc1=O
RP-LC retention time: 894 s

Cc1nn(-c2cc(N(C)C)ncn2)c(C)c1CCC(=O)NCc1ccco1
RP-LC retention time: 684 s

O=C(Nc1nccnc1C(=O)NC1CC1)c1ccccc1
RP-LC retention time: 732 s

O=C(CCCSc1ccc(NC(=O)c2cccs2)nn1)Nc1cnc2ccccc2c1
RP-LC retention time: 706 s

COc1cccc(CC(=O)N2CCc3cc(-c4csc(C)n4)ccc32)c1
RP-LC retention time: 967 s

CCN1CCCN(C(=O)C2(c3ccc(OC)cc3)CC2)CC12CCOCC2
RP-LC retention time: 620 s

Cc1ccc(-c2cc(C(=O)NCCCN3CCN(C)CC3)c(C)[nH]2)cc1C
RP-LC retention time: 610 s

CCOCCCNC(=O)Cn1c(-c2cccs2)cc2cc(F)ccc21
RP-LC retention time: 946 s

CCOc1ccc(NC(=O)N2CCC3(CC2)NC(=O)c2ccccc2N3CC)cc1
RP-LC retention time: 785 s

COCCN1C(=O)CS(=O)(=O)C12CCN(C(=O)C1(c3ccc(OC)cc3)CC1)CC2
RP-LC retention time: 661 s

Cc1cc(C)cc(-c2nnc(Cc3nc(-c4cccc(Cl)c4)no3)o2)c1
RP-LC retention time: 1230 s

O=C(NCCN1CCCCC1)c1ccc(-c2ccc(N3CCSCC3)nc2)cc1
RP-LC retention time: 591 s

CCOCCCNC(=O)c1ccc(Oc2nccnc2N2CCC(C)CC2)cc1
RP-LC retention time: 1030 s

CCc1ccc(-c2cc3c(=O)n(CC(=O)NCCCN4CCCC4=O)nc(C)n3n2)cc1
RP-LC retention time: 812 s

Cc1ccc(CNC(=O)C2CCN(S(=O)(=O)c3ccc(-c4noc(C5CC5)n4)cc3)CC2)o1
RP-LC retention time: 938 s

CCN1CCN(c2ccc(-c3nc(-c4ccc(C)cc4)no3)cn2)CC1
RP-LC retention time: 715 s

O=C(c1ccc(-c2ccc3c(c2)CCN3S(=O)(=O)c2ccccc2)cc1)N1CCOCC1
RP-LC retention time: 885 s

CN(C)S(=O)(=O)N1CCOc2ccc(CCC(=O)NCC3CC3)cc2C1
RP-LC retention time: 767 s

CSc1ccc(NC(=O)CCl)cc1
RP-LC retention time: 751 s

O=C(CN1C(=O)C2CCCN2C(=O)c2ccccc21)c1ccc(Br)cc1 (stereo not drawn)
RP-LC retention time: 823 s

COc1cc(NC(=O)Cn2nc3n(c2=O)CCCCC3)cc(OC)c1
RP-LC retention time: 704 s

Cc1ccc(N2CCN(C(=O)c3sc4ncccc4c3-n3cccc3)CC2)c(C)c1
RP-LC retention time: 1260 s

Cc1ccc(C2=NC(c3ccc([N+](=O)[O-])cc3)SC(N3CCOCC3)=N2)cc1 (stereo not drawn)
RP-LC retention time: 642 s

CCNc1cc(N2CCC(CCC(=O)NCc3cc(F)ccc3F)CC2)ncn1
RP-LC retention time: 666 s

Cc1ccc(-c2nc(N)n(C(=O)C(C)(C)C)n2)cc1
RP-LC retention time: 1080 s

COc1ccc(-c2cc(N3CCC(NC(=O)c4ccc(Cl)cc4)C3)n[nH]2)cc1 (stereo not drawn)
RP-LC retention time: 739 s

O=C(NCCCN1CCCCC1)c1ccc2c(c1)NC(=O)C1CCCCN21 (stereo not drawn)
RP-LC retention time: 600 s

Fc1ccc(-c2nnc(Cc3nc(-c4ccccc4)no3)o2)cc1
RP-LC retention time: 992 s

CCOC(=O)c1c(C)oc2nc(C)nc(NCCc3ccc(C)cc3)c12
RP-LC retention time: 1330 s

CC(C)(C)CC(=O)N1CCc2nc(-c3ccccc3)ncc2C1
RP-LC retention time: 934 s

O=C(Nc1cccc(-c2ccc(N3CCOCC3)nn2)c1)Nc1ccc2c(c1)OCCO2
RP-LC retention time: 659 s

Cc1ccc(NC(=O)C2CCN(S(=O)(=O)c3c(C)[nH]c(C)c3C(=O)N3CCCC3)CC2)cc1
RP-LC retention time: 723 s

Cc1cc(NS(=O)(=O)c2cc(-c3[nH]ncc3C(=O)N3CCOCC3)oc2C)ccc1F
RP-LC retention time: 691 s

CCOC(=O)CCNC(=O)N1CCCCCCN(C)C(=O)CC1
RP-LC retention time: 627 s

Cc1ccc(NC(=O)N2CCCC2c2nc(-c3ccc(F)cc3F)no2)c(Cl)c1 (stereo not drawn)
RP-LC retention time: 1110 s

O=C(c1ccoc1)N1CCN(c2cc(-c3ccccc3)[nH]n2)CC1
RP-LC retention time: 698 s

CCC(C(=O)N1CCN(c2ccccn2)CC1)n1c(C)c2cnn(-c3ccccc3)c(=O)c2c1C (stereo not drawn)
RP-LC retention time: 632 s

Cn1nccc1-c1cccc(-c2noc(/C=C/c3ccccc3Cl)n2)c1
RP-LC retention time: 1290 s

COc1ccc(C(=O)N2CCC(n3c(-c4ccco4)nc4cccnc43)C2)cc1OC (stereo not drawn)
RP-LC retention time: 644 s

CCc1cc2c(N3CCCC(C(=O)N(C)C)C3)nccc2s1 (stereo not drawn)
RP-LC retention time: 640 s

CCn1ncc(C(=O)NCCn2c(C)cnc2C2CCC2)c1C
RP-LC retention time: 567 s

Cc1nn(C(C)C(=O)NCCCN2CCc3ccccc3C2)c(=O)c2nn(-c3ccccc3)c(C)c12 (stereo not drawn)
RP-LC retention time: 667 s

Cn1cc(C(=O)NCc2cc(F)cc(F)c2)c(S(=O)(=O)N2CCSCC2)n1
RP-LC retention time: 1010 s

Cc1ccc(CNC(=O)C2c3ccccc3CC(=O)N2C)cc1 (stereo not drawn)
RP-LC retention time: 748 s

COc1ccc(-n2ncc3c(=O)n(Cc4nc(-c5ccc(Cl)c(F)c5)no4)cnc32)cc1
RP-LC retention time: 1090 s

Cc1nn(-c2ccccc2)c2nc(C3CC3)cc(C(=O)NCc3ccco3)c12
RP-LC retention time: 1100 s

COc1ccc(-n2nc(N3CCCC(C(=O)NCc4ccco4)C3)ccc2=O)cc1 (stereo not drawn)
RP-LC retention time: 740 s

O=C(NCc1cccs1)C1CCCN(C(=O)c2cc(-c3ccccn3)n[nH]2)C1 (stereo not drawn)
RP-LC retention time: 641 s

CN1CCN(CCNC(=O)c2ccc3c(c2)nnn3Cc2ccc(F)cc2)CC1
RP-LC retention time: 591 s

CCc1nn2c(CNS(=O)(=O)c3cc(F)ccc3F)c(-c3ccccc3)nc2s1
RP-LC retention time: 929 s

Cc1cccc(CNC(=O)c2cn3ccc(C)cc3n2)c1
RP-LC retention time: 675 s

Cc1ccc(OCc2nc(Cc3nc(-c4ccccc4)oc3C)no2)cc1
RP-LC retention time: 1170 s

CCOC(=O)c1cnc(N2CCN(Cc3ccccc3)CC2)c2ccccc12
RP-LC retention time: 755 s

Cc1nnc2ccc(N3CCC(C(=O)NCCCOC(C)C)CC3)nn12
RP-LC retention time: 643 s

CCNC(=O)C1CCCN(c2nc3ncn(CC(=O)Nc4ccc(Cl)cc4)c(=O)c3s2)C1 (stereo not drawn)
RP-LC retention time: 704 s

CCc1ccccc1NS(=O)(=O)c1cc(-c2c(CC)noc2NC(C)=O)ccc1OC
RP-LC retention time: 838 s

Cc1ccc(S(=O)(=O)N2CC(=O)N(c3ccc(F)cc3)C(C)(C(=O)NC3CCCC3)C2)cc1 (stereo not drawn)
RP-LC retention time: 956 s

CCOC(=O)c1noc2ncnc(Nc3ccc(CC)cc3)c12
RP-LC retention time: 1060 s

Cc1oc(-c2[nH]ncc2C(=O)N2CCCC2)cc1S(=O)(=O)NCc1cccc(Cl)c1
RP-LC retention time: 796 s

CCn1cc(C)c(C(=O)O)c1CC(=O)NC1CCCCCC1
RP-LC retention time: 814 s

COc1ccc(NC(=O)C2CCN(S(=O)(=O)c3ccc4c(c3)NC(=O)CO4)CC2)cc1Cl
RP-LC retention time: 777 s
